This is an account of results in patent publication US8759318B2, “Phosphoramidate derivatives of guanosine nucleoside compounds for treatment of viral infections” (Inhibitex, Inc., priority 2009, dated 2014).

The structures appear in SMILES notation. Where two headings read alike, the source gives them in different places.

A short description of data set [1]: Protide stability in normal plasma, human. The format is in vitro ADME. Conditions: 37° C. The procedure:
(§1) Selected nucleoside 5′-phosphoramidates were examined for stability in human, cynomolgous monkey, rat and mouse plasma at 37° C. at both 30 min and 90 min time points.
(§2) Protide Stability in Normal Plasma: Plasma samples were prepared for analysis as follows. 50 μl of each test sample were distributed a 96-well V-bottom plate. 200 μl of acetonitrile containing 10 ng/ml of an internal standard was added to each plasma sample. The precipitated samples were centrifuged at 2500 rpm, 4° C. for 20 minutes in a Sorvall RT6000S centrifuge (Thermo Scientific, Waltham Mass.) and 100 μl of supernatant from each sample was transferred into a 96 deep well plate followed by the addition of 100 μl H2O to each sample. Samples were covered, mixed well by vortexing and maintained at 2-8° C. before and during analysis. 15 μl of each test sample was analyzed for protide concentrations by liquid chromatography coupled to tandem mass spectrometry (LC-MS/MS). Liquid chromatography was performed with an Agilent 1100 Series HPLC system equipped with a Synergi 4 μm Polar-RP, 30×2.0 mm column (Phenomenex, Torrance, Calif.). The HPLC system was coupled to an API 4000 triple quadrupole mass spectrometer (Applied Biosystems, Framingham, Mass.). Mass spectrometry was performed in positive ion mode and data was analyzed using Analyst® v1.4.2 software (Applied Biosystems, Framingham, Mass.). Data was presented as the percentage of compound recovered as compared to the 0 time point control.

A short description of data set [2]: Protide stability in normal plasma, cynomolgous monkey. It counts as in vitro ADME. Conditions: 37° C. Here is the method: as §1, §2
Data set [3] can be described thus: Protide stability in normal plasma, mouse. Conditions: 37° C., 30 min. The format is in vitro ADME. The procedure: as §1, §2
A short description of the next data set: in vitro. The conditions noted are these: human.
Data set [4] deals with HCV replicon (Genotype 1b). As to the kind of experiment: Luciferase genotype 1b replicon potency assay. Conditions: Hepatitis C virus. (A replicon is a self-replicating genome or part of one, used to study replication in cells.)
[5] abbreviates: GETYPE1B, read-out: IC50 μM, HCV genotype 1b luciferase replicon, Renilla luciferase reporter.

Consider `COc1nc(N)nc2c1ncn2C1O[C@H](COP(=O)(N[C@@H](C)C(=O)OCc2ccccc2)Oc2cccc3ccccc23)[C@@H](O)[C@@]1(C)O` (stereo partly drawn) [Example 13], for which the “% Compound Remaining Compared to %100 Acetonitrile Control” value is given as 97.2% in data set [1] (30 min); 85.4% in data set [1] (1.5 h); 89.1% in data set [2] (30 min); 77.0% in data set [2] (1.5 h); <3.9% in data set [3]. This molecule displayed a CC50 in “in vitro” of 14 µM. The IC50 in data set [4] (setting [5]) came out at 0.026 µM.

For `CCOc1nc(N)nc2c1ncn2C1O[C@H](COP(=O)(N[C@@H](C)C(=O)OC2CCOCC2)Oc2cccc3ccccc23)[C@@H](O)[C@@]1(C)O` (stereo partly drawn) [Example 78, (2S)-tetrahydro-2H-pyran-4-yl 2-((((2R,3R,4R)-5-(2-amino-6-ethoxy-9H-purin-9-yl)-3,4-dihydroxy-4-methyltetrahydrofuran-2-yl)methoxy)(naphthalen-1-yloxy)phosphorylamino)propanoate], the CC50 in “in vitro” stood at 47 µM. In addition, the IC50 in data set [4] (setting [5]) stood at 0.059 µM.

As for `CCOc1nc(N)nc2c1ncn2C1O[C@H](COP(=O)(N[C@H](C(=O)OCC(C)(C)C)C(C)C)Oc2cccc3ccccc23)[C@@H](O)[C@@]1(C)O` (stereo partly drawn) [Example 79, (2S)-neopentyl 2-((((2R,3R,4R)-5-(2-amino-6-ethoxy-9H-purin-9-yl)-3,4-dihydroxy-4-methyltetrahydrofuran-2-yl)methoxy)(naphthalen-1-yloxy)phosphorylamino)-3-methylbutanoate], the CC50 in the data set “in vitro” is 24 µM. In addition, the half-maximal inhibitory concentration (IC50) in data set [4] (setting [5]) is 0.22 µM.

For `CNc1nc(N)nc2c1ncn2C1O[C@H](COP(=O)(N[C@@H](C)C(=O)OCC(C)(C)C)Oc2cccc3ccccc23)[C@@H](O)[C@@]1(C)O` (stereo partly drawn) [Example 81, (2S)-neopentyl 2-((((2R,3R,4R)-5-(2-amino-6-(methylamino)-9H-purin-9-yl)-3,4-dihydroxy-4-methyltetrahydrofuran-2-yl)methoxy)(naphthalen-1-yloxy)phosphorylamino)propanoate], in the data set “in vitro”, the CC50 is 48 µM. In addition, the IC50 in data set [4] (read-out: IC50 μM) came out at 0.033 µM.

The molecule `CNc1nc(N)nc2c1ncn2C1O[C@H](COP(=O)(N[C@@H](C)C(=O)O[C@@H](C)c2ccccc2)Oc2cccc3ccccc23)[C@@H](O)[C@@]1(C)O` (stereo partly drawn) [Example 82, (2S)-((S)-1-phenylethyl) 2-((((2R,3R,4R)-5-(2-amino-6-(methylamino)-9H -purin-9-yl)-3,4-dihydroxy-4-methyltetrahydrofuran-2-yl)methoxy) (naphthalen-1-yloxy)phosphorylamino)propanoate] came in with a CC50 in “in vitro” of 54 µM. Besides, the IC50 in data set [4] (setting [5]) was 0.11 µM.

With `CNc1nc(N)nc2c1ncn2[C@@H]1O[C@H](COP(=O)(N[C@@H](C)C(=O)OCC(C)(C)C)Oc2ccc3ncccc3c2)[C@@H](O)[C@@]1(C)O` (stereo partly drawn) [Example 83, (2S)-neopentyl 2-((((2R,3R,4R,5R)-5-(2-amino-6-(methylamino)-9H-purin-9-yl)-3,4-dihydroxy-4-methyltetrahydrofuran-2-yl)methoxy)(quinolin-6-yloxy)phosphorylamino)propanoate], the CC50 in the data set “in vitro” was > 100 µM. In data set [4] (setting [5]), the IC50 came out at 0.36 µM.

On to `C[C@H](NP(=O)(OC[C@H]1OC(n2cnc3c(NCc4ccccc4)nc(N)nc32)[C@](C)(O)[C@@H]1O)Oc1cccc2ccccc12)C(=O)OCC(C)(C)C` (stereo partly drawn) [Example 85], for which, in “in vitro”, the CC50 came out at 15 µM. Moreover, the IC50 in data set [4] (setting [5]) was found to be 0.58 µM.

On to `C[C@H](NP(=O)(OC[C@H]1OC(n2cnc3c(NCCc4ccccc4)nc(N)nc32)[C@](C)(O)[C@@H]1O)Oc1cccc2ccccc12)C(=O)OCC(C)(C)C` (stereo partly drawn) [Example 87, (2S)-neopentyl 2-((((2R,3R,4R)-5-(2-amino-6-(phenethylamino)-9H-purin-9-yl)-3,4-dihydroxy-4-methyltetrahydrofuran-2-yl)methoxy)(naphthalen-1-yloxy)phosphorylamino)propanoate], for which, in “in vitro”, the CC50 came to 42 µM. Further, the IC50 in data set [4] (setting [5]) was 0.27 µM.

With `CSc1nc(N)nc2c1ncn2C1O[C@H](COP(=O)(N[C@@H](C)C(=O)O[C@@H](C)c2ccccc2)Oc2cccc3ccccc23)[C@@H](O)[C@@]1(C)O` (stereo partly drawn) [Example 89, (2S)-((S)-1-phenylethyl) 2-((((2R,3R,4R)-5-(2-amino-6-(methylthio)-9H-purin-9-yl)-3,4-dihydroxy-4-methyltetrahydrofuran-2-yl)methoxy)(naphthalen-1-yloxy)phosphorylamino)propanoate], the CC50 in the data set “in vitro” stood at 27 µM. The IC50 in data set [4] (setting [5]) amounted to 0.14 µM.

In the case of `CSc1nc(N)nc2c1ncn2C1O[C@H](COP(=O)(N[C@@H](C)C(=O)OCC(C)(C)C)Oc2cccc3ccccc23)[C@@H](O)[C@@]1(C)O` (stereo partly drawn) [Example 90, (2S)-neopentyl 2-((((2R,3R,4R)-5-(2-amino-6-(methylthio)-9H-purin-9-yl)-3,4-dihydroxy-4-methyltetrahydrofuran-2-yl)methoxy)(naphthalen-1-yloxy)phosphorylamino)propanoate], the CC50 in the data set “in vitro” is 41 µM. In data set [4] (setting [5]), the IC50 was determined as 0.033 µM.

In the case of `CSc1nc(N)nc2c1ncn2[C@@H]1O[C@H](COP(=O)(N[C@@H](C)C(=O)OCC(C)(C)C)Oc2ccc3ncccc3c2)[C@@H](O)[C@@]1(C)O` (stereo partly drawn) [Example 91, (2S)-neopentyl 2-((((2R,3R,4R,5R)-5-(2-amino-6-(methylthio)-9H-purin-9-yl)-3,4-dihydroxy-4-methyltetrahydrofuran-2-yl)methoxy)(quinolin-6-yloxy)phosphorylamino)propanoate], the CC50 in the data set “in vitro” was > 100 µM. In addition, the IC50 in data set [4] (setting [5]) is 0.26 µM.

Regarding `COc1nc(NCc2ccc(F)cc2)nc2c1ncn2[C@@H]1O[C@H](COP(=O)(N[C@@H](C)C(=O)OCC(C)(C)C)Oc2cccc3ccccc23)[C@@H](O)[C@@]1(C)O` (stereo partly drawn) [Example 93, (2S)-neopentyl 2-((((2R,3R,4R,5R)-5-(2-(4-fluorobenzylamino)-6-methoxy-9H-purin-9-yl)-3,4-dihydroxy-4-methyltetrahydrofuran-2-yl)methoxy)(naphthalen-1-yloxy)phosphorylamino)propanoate], the CC50 in “in vitro” was 17 µM. The IC50 in data set [4] (setting [5]) worked out at 7.2 µM.

In “in vitro”, `COc1nc(N)nc2c1ncn2C1O[C@H](COP(=O)(N[C@@H](C)C(=O)OCc2ccccc2)Oc2cccc3ccccc23)C[C@@]1(C)O` (stereo partly drawn) [Example 95, (2S)-benzyl 2-((((2S,4R)-5-(2-amino-6-methoxy-9H-purin-9-yl)-4-hydroxy-4-methyltetrahydrofuran-2-yl)methoxy)(naphthalen-1-yloxy)phosphorylamino)propanoate] returned a CC50 of 70 µM. Besides, the IC50 in data set [4] (setting [5]) amounted to 0.9 µM.

With `COc1nc(N)nc2c1ncn2C1O[C@H](COP(=O)(N[C@@H](C)C(=O)O[C@@H](C)c2ccccc2)Oc2cccc3ccccc23)C[C@@]1(C)O` (stereo partly drawn) [Example 96, (2S)-((S)-1-phenylethyl) 2-((((2S,4R)-5-(2-amino-6-methoxy-9H-purin-9-yl)-4-hydroxy-4-methyltetrahydrofuran-2-yl)methoxy)(naphthalen-1-yloxy)phosphorylamino)propanoate], the CC50 in “in vitro” turned out to be 20 µM. Besides, the IC50 in data set [4] (setting [5]) is > 10 µM.

In turn, `COc1nc(N)nc2c1ncn2C1O[C@H](COP(=O)(N[C@@H](C)C(=O)OCC(C)(C)C)Oc2cccc3ccccc23)C[C@@]1(C)O` (stereo partly drawn) [Example 97, (2S)-neopentyl 2-((((2S,4R)-5-(2-amino-6-methoxy-9H-purin-9-yl)-4-hydroxy-4-methyltetrahydrofuran-2-yl)methoxy)(naphthalen-1-yloxy)phosphorylamino)propanoate] gave a CC50 in “in vitro” of 44 µM. Further, the IC50 in data set [4] (setting [5]) was > 10 µM.

In the data set “in vitro”, `COc1nc(N)nc2c1ncn2C1O[C@H](COP(=O)(N[C@@H](C)C(=O)OC2CCCCC2)Oc2cccc3ccccc23)C[C@@]1(C)O` (stereo partly drawn) [Example 98, (2S)-cyclohexyl 2-((((2S,4R)-5-(2-amino-6-methoxy-9H-purin-9-yl)-4-hydroxy-4-methyltetrahydrofuran-2-yl)methoxy)(naphthalen-1-yloxy)phosphorylamino)propanoate] gave a CC50 of 20 µM. Besides, the IC50 in data set [4] (setting [5]) was > 10 µM.

As for `COc1nc(N)nc2c1ncn2C1O[C@H](COP(=O)(N[C@H](C(=O)OCc2ccccc2)C(C)C)Oc2cccc3ccccc23)C[C@@]1(C)O` (stereo partly drawn) [Example 99, benzyl (2S)-benzyl 2-((((2S,4R)-5-(2-amino-6-methoxy-9H-purin-9-yl)-4-hydroxy-4-methyltetrahydrofuran-2-yl)methoxy)(naphthalen-1-yloxy)phosphorylamino)-3-methylbutanoate], in “in vitro”, the CC50 was 22 µM. For the same molecule, in data set [4] (setting [5]), the IC50 is > 10 µM.

By IC50 is commonly meant the concentration that inhibits the measured activity by half.
